Results reported in ChEMBL document CHEMBL3991601, “The target landscape of clinical kinase drugs” (Science, 2017).
Active and inactive are the calls of the source. Rule as the data show it, for most assays here: actives have a measured Kd and inactives only a lower limit.

How the values were obtained:
[1] = molecular target: Cyclin-dependent kinase 6 (Homo sapiens, UniProt Q00534)
[2] = molecular target: Casein kinase II subunit alpha' (Homo sapiens, UniProt P19784)
Pyridoxal kinase = molecular target: T1, Pyridoxal kinase (Homo sapiens, UniProt O00764)
T1 sequence (O00764 whole entry): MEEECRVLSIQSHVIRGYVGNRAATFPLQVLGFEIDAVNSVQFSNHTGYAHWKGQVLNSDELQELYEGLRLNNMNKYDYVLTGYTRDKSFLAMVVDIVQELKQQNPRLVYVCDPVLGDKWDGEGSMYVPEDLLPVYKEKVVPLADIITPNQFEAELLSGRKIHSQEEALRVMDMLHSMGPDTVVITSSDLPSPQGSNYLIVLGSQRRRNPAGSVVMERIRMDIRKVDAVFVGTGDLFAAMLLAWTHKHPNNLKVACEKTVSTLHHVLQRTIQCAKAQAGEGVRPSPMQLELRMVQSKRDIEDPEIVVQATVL

[3] = molecular target: T2, Mitogen-activated protein kinase kinase kinase kinase 3 (Homo sapiens, UniProt Q8IVH8)
T2 sequence (Q8IVH8 whole entry): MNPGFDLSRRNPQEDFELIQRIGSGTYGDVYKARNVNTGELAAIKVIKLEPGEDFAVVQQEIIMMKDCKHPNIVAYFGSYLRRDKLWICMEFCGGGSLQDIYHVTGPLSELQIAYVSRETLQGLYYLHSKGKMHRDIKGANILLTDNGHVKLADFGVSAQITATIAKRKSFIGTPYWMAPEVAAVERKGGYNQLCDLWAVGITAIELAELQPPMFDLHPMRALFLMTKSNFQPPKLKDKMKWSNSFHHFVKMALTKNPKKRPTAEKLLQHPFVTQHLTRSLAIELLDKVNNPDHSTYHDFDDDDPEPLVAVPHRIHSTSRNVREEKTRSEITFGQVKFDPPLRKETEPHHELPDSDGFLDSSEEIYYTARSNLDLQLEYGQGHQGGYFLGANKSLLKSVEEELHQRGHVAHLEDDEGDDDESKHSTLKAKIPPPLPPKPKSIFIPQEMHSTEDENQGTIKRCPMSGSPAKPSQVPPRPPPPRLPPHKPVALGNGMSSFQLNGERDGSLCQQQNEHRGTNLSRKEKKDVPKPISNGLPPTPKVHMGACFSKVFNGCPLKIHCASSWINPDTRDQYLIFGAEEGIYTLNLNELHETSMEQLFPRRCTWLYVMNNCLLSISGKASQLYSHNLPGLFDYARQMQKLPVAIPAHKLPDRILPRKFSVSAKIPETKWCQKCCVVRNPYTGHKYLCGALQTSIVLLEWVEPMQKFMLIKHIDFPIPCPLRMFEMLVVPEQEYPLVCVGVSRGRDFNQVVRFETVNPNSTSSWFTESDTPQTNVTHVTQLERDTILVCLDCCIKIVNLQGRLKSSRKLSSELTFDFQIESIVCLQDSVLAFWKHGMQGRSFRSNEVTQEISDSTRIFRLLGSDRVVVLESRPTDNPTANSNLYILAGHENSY

[4] = molecular target: T3, MAP/microtubule affinity-regulating kinase 4 (Homo sapiens, UniProt Q96L34)
T3 sequence (Q96L34 whole entry): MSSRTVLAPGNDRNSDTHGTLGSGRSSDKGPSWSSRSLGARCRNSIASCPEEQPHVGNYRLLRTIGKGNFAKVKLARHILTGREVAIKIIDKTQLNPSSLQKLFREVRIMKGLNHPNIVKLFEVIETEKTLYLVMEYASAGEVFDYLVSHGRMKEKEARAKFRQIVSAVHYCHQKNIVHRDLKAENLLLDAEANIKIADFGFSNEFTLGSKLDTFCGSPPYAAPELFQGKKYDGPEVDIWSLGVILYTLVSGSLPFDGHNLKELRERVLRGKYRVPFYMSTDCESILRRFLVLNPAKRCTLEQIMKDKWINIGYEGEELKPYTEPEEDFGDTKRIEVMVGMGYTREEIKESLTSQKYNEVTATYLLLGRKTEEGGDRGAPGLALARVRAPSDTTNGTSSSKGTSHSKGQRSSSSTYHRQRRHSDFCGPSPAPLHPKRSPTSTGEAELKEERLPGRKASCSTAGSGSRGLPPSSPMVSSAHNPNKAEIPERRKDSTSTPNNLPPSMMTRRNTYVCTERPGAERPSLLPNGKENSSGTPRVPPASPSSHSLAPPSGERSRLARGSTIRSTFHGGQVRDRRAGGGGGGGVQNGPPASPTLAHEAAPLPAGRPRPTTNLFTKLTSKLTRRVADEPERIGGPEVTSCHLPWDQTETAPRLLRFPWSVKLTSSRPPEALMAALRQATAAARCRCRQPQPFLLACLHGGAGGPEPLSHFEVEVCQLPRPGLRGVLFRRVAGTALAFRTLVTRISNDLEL

[5] = molecular target: T4, Dynamin-like GTPase OPA1, mitochondrial (Homo sapiens, UniProt O60313)
T4 sequence (O60313 whole entry): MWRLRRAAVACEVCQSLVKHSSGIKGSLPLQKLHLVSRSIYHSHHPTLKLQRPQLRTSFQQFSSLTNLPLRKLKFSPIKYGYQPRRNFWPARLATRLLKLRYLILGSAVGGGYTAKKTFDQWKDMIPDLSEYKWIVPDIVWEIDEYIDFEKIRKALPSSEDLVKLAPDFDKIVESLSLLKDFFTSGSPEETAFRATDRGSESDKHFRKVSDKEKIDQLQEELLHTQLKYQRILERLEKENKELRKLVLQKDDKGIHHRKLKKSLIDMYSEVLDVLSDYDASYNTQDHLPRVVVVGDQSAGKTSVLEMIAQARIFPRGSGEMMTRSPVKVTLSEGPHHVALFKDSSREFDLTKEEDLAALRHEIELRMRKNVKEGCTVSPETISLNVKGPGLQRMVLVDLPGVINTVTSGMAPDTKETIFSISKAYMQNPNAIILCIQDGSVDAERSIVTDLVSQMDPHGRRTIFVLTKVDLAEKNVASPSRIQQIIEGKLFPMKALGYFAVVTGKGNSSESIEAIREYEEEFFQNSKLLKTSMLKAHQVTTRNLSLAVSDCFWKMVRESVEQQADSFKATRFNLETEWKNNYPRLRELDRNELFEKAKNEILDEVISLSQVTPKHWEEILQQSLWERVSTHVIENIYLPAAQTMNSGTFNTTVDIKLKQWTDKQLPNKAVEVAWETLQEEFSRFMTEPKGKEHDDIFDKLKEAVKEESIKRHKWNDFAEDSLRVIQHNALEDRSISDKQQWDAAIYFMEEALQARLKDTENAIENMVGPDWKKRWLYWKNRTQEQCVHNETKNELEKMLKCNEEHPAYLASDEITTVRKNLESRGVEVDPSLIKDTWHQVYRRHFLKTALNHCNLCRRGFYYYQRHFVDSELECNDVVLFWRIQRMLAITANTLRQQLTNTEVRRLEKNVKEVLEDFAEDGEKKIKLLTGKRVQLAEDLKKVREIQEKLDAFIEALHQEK
Also: in the data inactive means no Kd found up to 30 µM.

Casein kinase II subunit alpha', sequence (P19784 whole entry): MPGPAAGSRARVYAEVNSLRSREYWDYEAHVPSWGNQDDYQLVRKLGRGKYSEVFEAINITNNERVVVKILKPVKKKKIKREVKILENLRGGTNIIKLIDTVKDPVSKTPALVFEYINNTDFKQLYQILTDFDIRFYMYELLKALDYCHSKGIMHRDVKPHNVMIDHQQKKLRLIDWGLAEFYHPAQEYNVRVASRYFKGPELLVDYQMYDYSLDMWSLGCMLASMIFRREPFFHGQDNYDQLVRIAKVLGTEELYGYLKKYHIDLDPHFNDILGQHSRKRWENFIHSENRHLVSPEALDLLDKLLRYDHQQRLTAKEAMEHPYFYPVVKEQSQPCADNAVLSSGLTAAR
Cyclin-dependent kinase 6, sequence (Q00534 whole entry): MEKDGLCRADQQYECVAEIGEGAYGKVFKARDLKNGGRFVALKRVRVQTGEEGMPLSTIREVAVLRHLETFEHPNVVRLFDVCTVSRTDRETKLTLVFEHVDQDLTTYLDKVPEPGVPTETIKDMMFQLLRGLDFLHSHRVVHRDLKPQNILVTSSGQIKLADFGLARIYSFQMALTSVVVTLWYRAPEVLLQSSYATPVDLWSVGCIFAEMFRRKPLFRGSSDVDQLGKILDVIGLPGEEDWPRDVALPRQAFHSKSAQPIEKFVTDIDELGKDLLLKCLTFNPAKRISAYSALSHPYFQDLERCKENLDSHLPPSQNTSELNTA

Kd [1] | Kd [2] | Kd (Pyridoxal kinase) | Kd [3] | Kd [4] | Kd [5] | SMILES
> 30 µM (inactive) | > 30 µM (inactive) | > 30 µM (inactive) | > 30 µM (inactive) | > 30 µM (inactive) | > 30 µM (inactive) | Cn1ncc(Cl)c1-c1cc(C(=O)N[C@H](CN)Cc2cccc(F)c2)sc1Cl [AFURESERTIB]
> 30 µM (inactive) | > 30 µM (inactive) | 0.286 µM (active) | > 30 µM (inactive) | > 30 µM (inactive) | > 30 µM (inactive) | CC[C@@H]1C(=O)N(C)c2cnc(Nc3ccc(C(=O)N[C@H]4CC[C@H](N5CCN(CC6CC6)CC5)CC4)cc3OC)nc2N1C(C)C [VOLASERTIB]
> 30 µM (inactive) | > 30 µM (inactive) | > 30 µM (inactive) | > 30 µM (inactive) | > 30 µM (inactive) | > 30 µM (inactive) | C[C@@H]1CN(Cc2ccc(F)cc2)[C@@H](C)CN1C(=O)c1cc2c(C(=O)C(=O)N(C)C)cn(C)c2cc1Cl [TALMAPIMOD]
> 30 µM (inactive) | > 30 µM (inactive) | > 30 µM (inactive) | > 30 µM (inactive) | > 30 µM (inactive) | > 30 µM (inactive) | CO[C@H]1C[C@@H]2CC[C@@H](C)[C@@](O)(O2)C(=O)C(=O)N2CCCC[C@H]2C(=O)O[C@H]([C@H](C)C[C@@H]2CC[C@@H](OCCO)[C@H](OC)C2)CC(=O)[C@H](C)/C=C(\C)[C@@H](O)[C@@H](OC)C(=O)[C@H](C)C[C@H](C)/C=C/C=C/C=C/1C [EVEROLIMUS]
> 30 µM (inactive) | > 30 µM (inactive) | > 30 µM (inactive) | > 30 µM (inactive) | > 30 µM (inactive) | > 30 µM (inactive) | OCCn1cc(-c2cnc3nnn(Cc4ccc5ncccc5c4)c3n2)cn1 [PF-04217903]
> 30 µM (inactive) | > 30 µM (inactive) | > 30 µM (inactive) | > 30 µM (inactive) | > 30 µM (inactive) | > 30 µM (inactive) | Cn1cc(-c2ccc(F)c(C(F)(F)F)c2)nc1C1CCN(c2ncnc3[nH]ncc23)CC1 [LY-2584702]
> 30 µM (inactive) | > 30 µM (inactive) | > 30 µM (inactive) | > 30 µM (inactive) | > 30 µM (inactive) | > 30 µM (inactive) | COc1cc2nccc(Oc3ccc(NC(=O)Nc4cc(C)on4)c(Cl)c3)c2cc1OC [TIVOZANIB]
> 30 µM (inactive) | > 30 µM (inactive) | > 30 µM (inactive) | > 30 µM (inactive) | > 30 µM (inactive) | > 30 µM (inactive) | CNC(=O)c1ccc(C)c(-n2c(C)cc(OCc3ccc(F)cc3F)c(Br)c2=O)c1 [PH-797804]
> 30 µM (inactive) | > 30 µM (inactive) | > 30 µM (inactive) | > 30 µM (inactive) | > 30 µM (inactive) | > 30 µM (inactive) | Cc1ccc(NC(=O)c2ccc(CN3CC[C@H](N(C)C)C3)c(C(F)(F)F)c2)cc1Nc1nccc(-c2cncnc2)n1 [BAFETINIB]
> 30 µM (inactive) | > 30 µM (inactive) | > 30 µM (inactive) | > 30 µM (inactive) | > 30 µM (inactive) | > 30 µM (inactive) | COc1ccc(-c2ccc3c(N4CCOC[C@@H]4C)nc(N4CCOC[C@@H]4C)nc3n2)cc1CO [AZD-8055]
> 30 µM (inactive) | > 30 µM (inactive) | > 30 µM (inactive) | > 30 µM (inactive) | > 30 µM (inactive) | > 30 µM (inactive) | O=C(O)[C@]1(Cc2cccc(Nc3nccs3)n2)CC[C@@H](Oc2cccc(Cl)c2F)CC1 [MK-5108]
> 30 µM (inactive) | > 30 µM (inactive) | > 30 µM (inactive) | > 30 µM (inactive) | > 30 µM (inactive) | > 30 µM (inactive) | CNC(=O)c1ccc(-c2cnc3ncc(Cc4ccc5ncccc5c4)n3n2)cc1F [CAPMATINIB]
> 30 µM (inactive) | > 30 µM (inactive) | > 30 µM (inactive) | 0.049 µM (active) | > 30 µM (inactive) | > 30 µM (inactive) | COc1cc(CCc2cc(NC(=O)c3ccc(N4C[C@@H](C)N[C@@H](C)C4)cc3)n[nH]2)cc(OC)c1 [AZD-4547]

SMILES | Kd [1] | Kd [2] | Kd (Pyridoxal kinase) | Kd [3] | Kd [4] | Kd [5]
Cc1cc(-c2cc(O)ccc2Cl)cc2nnc(Nc3ccc(OCCN4CCCC4)cc3)nc12 | > 30 µM (inactive) | > 30 µM (inactive) | > 30 µM (inactive) | > 30 µM (inactive) | > 30 µM (inactive) | > 30 µM (inactive)
O=C(c1ccc(F)c(F)c1Nc1ccc(I)cc1F)N1CC(O)([C@@H]2CCCCN2)C1 [COBIMETINIB] | > 30 µM (inactive) | > 30 µM (inactive) | > 30 µM (inactive) | > 30 µM (inactive) | > 30 µM (inactive) | > 30 µM (inactive)
CN1CCC(COc2cnc(-c3cccc(Cn4nc(-c5cccc(C#N)c5)ccc4=O)c3)nc2)CC1 [TEPOTINIB] | > 30 µM (inactive) | > 30 µM (inactive) | > 30 µM (inactive) | > 30 µM (inactive) | > 30 µM (inactive) | > 30 µM (inactive)
COC(=O)[C@@]1(O)C[C@H]2O[C@]1(C)n1c3ccccc3c3c4c(c5c6ccccc6n2c5c31)C(=O)NC4 [K-252A] | 0.399 µM (active) | > 30 µM (inactive) | > 30 µM (inactive) | 2.37 µM (active) | 0.028 µM (active) | > 30 µM (inactive)
Cc1ccc(-n2nc(C(C)(C)C)cc2NC(=O)NCc2cc(F)ccc2Oc2ccc3c(cnn3CCO)c2)cc1 [PEXMETINIB] | > 30 µM (inactive) | > 30 µM (inactive) | > 30 µM (inactive) | > 30 µM (inactive) | > 30 µM (inactive) | > 30 µM (inactive)
